{"source": "patent US10604473B2", "about": "“Lipids that increase insulin sensitivity and methods of using the same” (Beth Israel Deaconess Medical Center, Inc., priority 2013, dated 2020)", "key": {"[1]": {"system": "STC-1 cells", "test": "ERK phosphorylation in STC-1 cells (immunoblot)", "format": "cell-based", "settings": "15 minutes stimulation", "protocol": "For the experiments summarized in FIG. 40, STC-1 cells were incubated with 9-PAHSA, 5-PAHSA or 9-OAHSA at the indicated concentrations. Cells were harvested and lysed and proteins were separated by SDS PAGE and transferred onto nitrocellulose filters. The phosphorylation of ERK and the amount of total ERK was determined by immunoblotting with antibodies specific for total or phosphor-ERK. DMSO was the control. For ERK phosphorylation, cells were serum deprived overnight and stimulated with FAHFAs or vehicle as indicated for 15 minutes followed by lysis in RIPA buffer and analysis by SDS-PAGE"}, "[2]": {"system": "STC-1 cells", "test": "GLP-1 secretion from STC-1 enteroendocrine cells (ELISA)", "format": "cell-based", "protocol": "For the experiments summarized in FIG. 41 STC-1 cells were incubated with vehicle (DMSO), 9-PAHSA, 5-PAHSA or 9-OAHSA at the indicated concentrations or lineolic acid (100 uM) as a positive control. Media was harvested and GLP-1 was measured by ELISA.\nFor the experiments summarized in FIG. 42, the same protocol as described for FIG. 41 was used, except in this experiment a time course was performed. For both FIG. 41 and FIG. 42, for GLP-1 secretion STC1 cells were washed 3× with serum free culture media followed by stimulation with FAHFAs or vehicle at the indicated concentrations and timepoints. Levels of active GLP-1 were measured by ELISA."}, "[3]": {"test": "FAHFA biosynthesis (FA-CoA:HFA acyltransferase) assay in tissue lysates", "format": "biochemical", "settings": "9-HSA and oleoyl-CoA 10 μM, increasing doses of inhibitor", "protocol": "After first establishing that FA-CoA:HFA acyltransferase activity was membrane-localized in liver (not shown), membrane fractions from liver or WAT tissue lysate were isolated by ultracentrifugation, then resuspended the pellets in PBS buffer and diluted to 1 mg/ml protein concentration. […] Formation of 9-OAHSA was measured by MS/MS, with which the appearance of the parent ion m/z 563 was monitored.\nIn light of the above results acyltransferase families that have been reported to have a membrane-bound localization and to have the ability to conjugate FA-CoA to a hydrophobic alcohol were targeted. Two of the enzymes, DGAT1 and ACAT, had selective inhibitors that were commercially available, A922500 [20] and CI976 [21], which were used to test their ability to reduce FAHFA production in the biosynthesis assay (inhibitors purchased from Tocris Bioscience)."}, "[4]": {"test": "FAHFA hydrolysis assay, pancreas membrane lysate", "format": "biochemical", "excerpt": "(§1) The experiment was repeated with either liver or pancreas membrane lysate."}, "[5]": {"system": "carboxyl ester lipase (CEL)", "test": "FAHFA hydrolysis assay, CEL-transfected HEK293T cell lysate", "format": "biochemical", "description": "Plasmid expression clones for these enzymes were obtained, which were under the control of the cytomegalovirus promoter (from the Cravatt lab), with which we transfected HEK293T cells to assess the ability of these enzymes to hydrolyze 9-PAHSA. For the activity assays, cell lysates were diluted according to the relative expression of the three clones according to ABP intensities.\nas §1"}, "[6]": {"test": "FAHFA hydrolysis assay (9-PAHSA to 9-HSA), liver lysate", "description": "To establish whether or not FAHFA can be enzymatically degraded, an LC-MS-based in vitro activity assay was developed to measure the hydrolysis of 9-PAHSA to 9-HSA. […] Liver lysate (1 mg/ml protein) was incubated with 100 μM 9-PAHSA at 37° C. for two hours. The reaction mixture was then extracted with one volume ethyl acetate, concentrated under nitrogen gas stream, and reconstituted in 1:1 chloroform:methanol for MS analysis."}, "[7]": {"system": "3T3-L1 adipocytes", "test": "Glucose transport in 3T3-L1 adipocytes", "format": "cell-based", "settings": "chronic treatment", "protocol": "FIGS. 54A-D show glucose uptake regulation by PAHSAs and Glut4 translocation via GPR120. FIG. 54A is a bar graph showing insulin-stimulated glucose transport in 3T3-L1 adipocytes treated 9-PAHSA (20 μM) or vehicle (DMSO) control for 6 days. n=6 per group, *p<0.05 compared to vehicle by t-test. FIG. 54B is a bar graph showing insulin (10 nM)-stimulated glucose transport in 3T3-L1 adipocytes transfected with control siRNA or GPR120 siRNA and treated 5-PAHSA (10 μM), 9-PAHSA (10 μM) or vehicle (DMSO) control for 2 days. n=3 per group, *p<0.05 compared to DMSO+control siRNA or GPR120 siRNA alone, $p<0.05 compared to control siRNA or GPR120 siRNA+insulin and GPR120 siRNA+insulin+PAHSA by t-test. FIG. 54C is a panel showing Glut4 plasma membrane translocation in 3T3-L1 adipocytes transfected with control siRNA or GPR120 siRNA and treated with 9-PAHSA in the presence or absence of insulin. 6 separate experiments were carried out without RNAi and 3 experiments with RNAi; each experiment had greater than 50 cells per experimental condition. FIG. 54D is a bar graph showing quantification of Glut4 translocation in panel C. *p<0.05 compared to control siRNA+insulin and GPR120 siRNA+insulin+9-PAHSA by t-test. All data are presented as mean±s.e.m. See also FIG. 57.\nFor all cell culture experiments, FAHFAs were solubilized in DMSO at a concentration of 20 mM and further diluted in assay buffer or cell culture media to the working concentrations indicated for each assay. In all instances an equivalent volume of vehicle (DMSO) was added to control treatment groups."}}}
{"compound": "CCCCCCCC/C=C\\CCCCCCCC(=O)OC(CCCCCCCCC)CCCCCCCC(=O)O", "note": "(stereo not drawn) [9-OAHSA]", "values": [{"measurement": "ERK phosphorylation", "setting": "[1]", "result": "induce ERK phosphorylation"}, {"measurement": "GLP-1 secretion", "setting": "[2]", "result": "induce GLP-1 secretion"}]}
{"compound": "O=C(Nc1ccccc1)Nc1ccc(-c2ccc(C(=O)[C@@H]3CCC[C@H]3C(=O)O)cc2)cc1", "note": "[A922500]", "values": [{"measurement": "9-OAHSA levels (FAHFA production)", "setting": "[3]", "result": "no change in 9-OAHSA levels"}]}
{"compound": "CCCCCCCCCCC(C)(C)C(=O)Nc1c(OC)cc(OC)cc1OC", "note": "[CI976]", "values": [{"measurement": "9-OAHSA levels (FAHFA production)", "setting": "[3]", "result": "no change in 9-OAHSA levels"}]}
{"compound": "C[C@H](CCC(=O)NCCS(=O)(=O)O)[C@H]1CC[C@H]2[C@@H]3[C@H](O)C[C@@H]4C[C@H](O)CC[C@]4(C)[C@H]3C[C@H](O)[C@]12C", "note": "[NaTC, sodium taurocholate]", "values": [{"measurement": "bile-salt activation of FAHFA hydrolysis", "setting": "[4]", "result": "markedly increased"}, {"measurement": "bile-salt activation of FAHFA hydrolysis", "setting": "[5]", "result": "enhanced"}, {"measurement": "bile-salt activation of FAHFA hydrolysis", "setting": "[6]", "result": "not enhanced"}]}
{"compound": "CCCCCCCCC(O)CCCCCCCCC(=O)O", "note": "(stereo not drawn) [hydroxystearic acid]", "values": [{"measurement": "insulin-stimulated glucose transport", "setting": "[7]", "result": "impaired insulin-stimulated glucose transport"}]}
{"compound": "CCCCCCCCCCCCCCCC(=O)O", "note": "[palmitic acid]", "values": [{"measurement": "insulin-stimulated glucose transport", "setting": "[7]", "result": "impaired insulin-stimulated glucose transport"}]}
